Results taken from paper PMC12814486 (Bioorganic & medicinal chemistry, 2025).
Converted amounts (≈) assume the structure as drawn.

What was measured:
[1] = target: T1, rat sEH (Rattus norvegicus, UniProt P80299); assay: sEH inhibition assay; assay type: biochemical
T1 sequence (P80299 1-554): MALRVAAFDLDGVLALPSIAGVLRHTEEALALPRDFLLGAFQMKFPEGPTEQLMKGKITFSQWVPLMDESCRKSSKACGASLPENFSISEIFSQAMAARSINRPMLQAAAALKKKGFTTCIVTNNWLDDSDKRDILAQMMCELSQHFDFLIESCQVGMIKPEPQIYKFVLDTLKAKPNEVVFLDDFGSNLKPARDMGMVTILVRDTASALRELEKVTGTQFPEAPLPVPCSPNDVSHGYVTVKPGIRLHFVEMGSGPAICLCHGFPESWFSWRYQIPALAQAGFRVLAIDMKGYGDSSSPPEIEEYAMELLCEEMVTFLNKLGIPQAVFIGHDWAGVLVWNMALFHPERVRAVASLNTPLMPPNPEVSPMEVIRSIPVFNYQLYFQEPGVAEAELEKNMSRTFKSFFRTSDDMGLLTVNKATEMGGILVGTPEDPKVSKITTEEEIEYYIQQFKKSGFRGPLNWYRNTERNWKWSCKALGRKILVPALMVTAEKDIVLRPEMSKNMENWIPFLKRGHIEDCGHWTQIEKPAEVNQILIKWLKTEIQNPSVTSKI

[2] = Solubility assay; assay type: physicochemical; settings: sodium phosphate buffer, pH 7.4, aqueous buffer, kinetic from dmso stock
[3] = target: T2, human sEH (Homo sapiens, UniProt P34913); assay: sEH inhibition assay; assay type: biochemical
T2 sequence (P34913 1-555): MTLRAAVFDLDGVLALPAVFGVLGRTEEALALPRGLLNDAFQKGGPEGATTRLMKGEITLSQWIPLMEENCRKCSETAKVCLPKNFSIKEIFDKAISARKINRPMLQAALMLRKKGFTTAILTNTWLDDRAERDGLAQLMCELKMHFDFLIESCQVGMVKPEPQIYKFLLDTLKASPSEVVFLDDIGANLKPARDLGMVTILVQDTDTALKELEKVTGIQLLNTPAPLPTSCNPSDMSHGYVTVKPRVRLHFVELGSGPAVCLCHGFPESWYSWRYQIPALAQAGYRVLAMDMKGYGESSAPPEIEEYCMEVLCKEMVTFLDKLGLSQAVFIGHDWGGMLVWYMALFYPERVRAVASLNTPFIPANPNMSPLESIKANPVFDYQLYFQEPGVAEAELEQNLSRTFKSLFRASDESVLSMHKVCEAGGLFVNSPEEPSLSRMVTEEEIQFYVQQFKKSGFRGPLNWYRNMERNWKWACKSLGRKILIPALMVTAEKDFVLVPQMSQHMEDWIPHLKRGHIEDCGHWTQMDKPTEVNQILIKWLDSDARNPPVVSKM

[4] = target: T3, mouse sEH (Mus musculus, UniProt P34914); assay: sEH inhibition assay; assay type: biochemical
T3 sequence (P34914 1-554): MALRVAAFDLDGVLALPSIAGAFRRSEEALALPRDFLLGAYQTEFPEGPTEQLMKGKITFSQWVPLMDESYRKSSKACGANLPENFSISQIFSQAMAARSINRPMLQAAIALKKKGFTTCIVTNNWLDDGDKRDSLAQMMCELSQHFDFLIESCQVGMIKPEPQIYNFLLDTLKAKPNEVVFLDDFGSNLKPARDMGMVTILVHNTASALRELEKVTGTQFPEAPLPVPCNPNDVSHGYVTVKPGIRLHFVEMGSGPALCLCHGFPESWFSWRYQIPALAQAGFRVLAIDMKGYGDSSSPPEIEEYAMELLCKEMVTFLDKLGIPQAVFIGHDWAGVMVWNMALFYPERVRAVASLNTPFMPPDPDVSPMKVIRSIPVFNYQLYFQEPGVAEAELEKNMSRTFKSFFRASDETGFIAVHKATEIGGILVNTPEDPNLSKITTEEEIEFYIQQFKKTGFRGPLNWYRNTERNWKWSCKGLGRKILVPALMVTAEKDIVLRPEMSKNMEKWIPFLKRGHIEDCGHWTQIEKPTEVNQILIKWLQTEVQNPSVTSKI

[5] = target: T4, human FAAH (Homo sapiens, UniProt O00519); assay: FAAH inhibition assay; assay type: biochemical
T4 sequence (O00519 1-579): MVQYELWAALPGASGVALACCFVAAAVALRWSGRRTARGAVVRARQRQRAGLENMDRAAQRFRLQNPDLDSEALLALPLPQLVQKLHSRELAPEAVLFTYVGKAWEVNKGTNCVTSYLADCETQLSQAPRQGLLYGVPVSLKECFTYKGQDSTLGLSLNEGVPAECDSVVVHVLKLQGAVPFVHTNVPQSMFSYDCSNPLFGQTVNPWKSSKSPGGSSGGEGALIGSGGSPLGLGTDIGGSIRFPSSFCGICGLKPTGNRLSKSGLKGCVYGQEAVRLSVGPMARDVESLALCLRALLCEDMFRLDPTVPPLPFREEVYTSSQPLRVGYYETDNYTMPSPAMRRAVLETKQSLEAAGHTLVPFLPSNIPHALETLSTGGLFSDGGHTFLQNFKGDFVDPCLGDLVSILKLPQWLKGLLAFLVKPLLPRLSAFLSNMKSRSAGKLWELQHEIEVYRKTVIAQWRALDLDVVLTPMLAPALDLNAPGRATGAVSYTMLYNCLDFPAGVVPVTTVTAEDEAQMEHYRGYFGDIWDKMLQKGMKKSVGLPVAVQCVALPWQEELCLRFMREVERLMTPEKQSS

[6] = system: male Sprague-Dawley rats; assay: Home cage wheel running; assay type: in vivo, rat; settings: 3 mg/kg intraperitoneal, vs vehicle, n = 8/group

O=C(Nc1ccc(-c2ncccn2)cc1)C1CCN(S(=O)(=O)c2ccccc2Cl)CC1 [Compound 4a, 1-((2-chlorophenyl)sulfonyl)-N-(4-(pyrimidin-2-yl)phenyl)piperidine-4-carboxamide]
IC50 [1]: 18.1 nM
solubility [2]: > 63 µM
IC50 [3]: 19.7 nM
IC50 [4]: 342 nM
IC50 [5]: 175 nM

O=C(Nc1ccc(-c2cncnc2)cc1)C1CCN(S(=O)(=O)c2ccccc2Cl)CC1 [Compound 4b, 1-((2-chlorophenyl)sulfonyl)-N-(4-(pyrimidin-5-yl)phenyl)piperidine-4-carboxamide]
IC50 [1]: 4.9 nM
solubility [2]: > 63 µM
IC50 [3]: 5.6 nM
IC50 [4]: 904 nM
IC50 [5]: 196 nM

O=C(Nc1ccc(-c2ncc(F)cn2)cc1)C1CCN(S(=O)(=O)c2ccccc2Cl)CC1 [Compound 4c, 1-((2-chlorophenyl)sulfonyl)-N-(4-(5-fluoropyrimidin-2-yl)phenyl)piperidine-4-carboxamide]
IC50 [1]: 47.7 nM
solubility [2]: 31 to 63 µM (≈ 14.7 to 29.9 µg/mL)
IC50 [3]: 23.4 nM
IC50 [4]: 82.5 nM
IC50 [5]: 290 nM

O=C(Nc1ccc(-c2ncc(Cl)cn2)cc1)C1CCN(S(=O)(=O)c2ccccc2Cl)CC1 [Compound 4d, 1-((2-chlorophenyl)sulfonyl)-N-(4-(5-chloropyrimidin-2-yl)phenyl)piperidine-4-carboxamide]
IC50 [1]: 82.3 nM
solubility [2]: 31 to 63 µM (≈ 15.2 to 31 µg/mL)
IC50 [3]: 89.4 nM
IC50 [4]: 89 nM
IC50 [5]: 460 nM

Cc1cnc(-c2ccc(NC(=O)C3CCN(S(=O)(=O)c4ccccc4Cl)CC3)cc2)nc1 [Compound 4e, 1-((2-chlorophenyl)sulfonyl)-N-(4-(5-methylpyrimidin-2-yl)phenyl)piperidine-4-carboxamide]
IC50 [1]: 73.9 nM
solubility [2]: 31 to 63 µM (≈ 14.6 to 29.7 µg/mL)
IC50 [3]: 73.6 nM
IC50 [4]: 79.8 nM
IC50 [5]: 308 nM

COc1cnc(-c2ccc(NC(=O)C3CCN(S(=O)(=O)c4ccccc4Cl)CC3)cc2)nc1 [Compound 4f, 1-((2-chlorophenyl)sulfonyl)-N-(4-(5-methoxypyrimidin-2-yl)phenyl)piperidine-4-carboxamide]
IC50 [1]: 55.9 nM
solubility [2]: 31 to 63 µM (≈ 15.1 to 30.7 µg/mL)
IC50 [3]: 26.3 nM
IC50 [4]: 32.4 nM
IC50 [5]: 181 nM

O=C(Nc1ccc(-c2cnc(F)nc2)cc1)C1CCN(S(=O)(=O)c2ccccc2Cl)CC1 [Compound 4g, 1-((2-chlorophenyl)sulfonyl)-N-(4-(2-fluoropyrimidin-5-yl)phenyl)piperidine-4-carboxamide]
IC50 [1]: 43.7 nM
solubility [2]: 31 to 63 µM (≈ 14.7 to 29.9 µg/mL)
IC50 [3]: 27.2 nM
IC50 [4]: 161 nM
IC50 [5]: 175 nM

O=C(Nc1ccc(-c2cnc(Cl)nc2)cc1)C1CCN(S(=O)(=O)c2ccccc2Cl)CC1 [Compound 4h, 1-((2-chlorophenyl)sulfonyl)-N-(4-(2-chloropyrimidin-5-yl)phenyl)piperidine-4-carboxamide]
IC50 [1]: 71.5 nM
solubility [2]: 31 to 63 µM (≈ 15.2 to 31 µg/mL)
IC50 [3]: 32.6 nM
IC50 [4]: 510 nM
IC50 [5]: 258 nM

Cc1ncc(-c2ccc(NC(=O)C3CCN(S(=O)(=O)c4ccccc4Cl)CC3)cc2)cn1 [Compound 4i, 1-((2-chlorophenyl)sulfonyl)-N-(4-(2-methylpyrimidin-5-yl)phenyl)piperidine-4-carboxamide]
IC50 [1]: 12.1 nM
solubility [2]: 31 to 63 µM (≈ 14.6 to 29.7 µg/mL)
IC50 [3]: 5.6 nM
IC50 [4]: 214 nM
IC50 [5]: 1240 nM

COc1ncc(-c2ccc(NC(=O)C3CCN(S(=O)(=O)c4ccccc4Cl)CC3)cc2)cn1 [Compound 4j, 1-((2-chlorophenyl)sulfonyl)-N-(4-(2-methoxypyrimidin-5-yl)phenyl)piperidine-4-carboxamide]
IC50 [1]: 17.9 nM
solubility [2]: 31 to 63 µM (≈ 15.1 to 30.7 µg/mL)
IC50 [3]: 7.7 nM
IC50 [4]: 379 nM
IC50 [5]: 462 nM

O=C(Nc1ccc(-c2cnc(C(F)(F)F)nc2)cc1)C1CCN(S(=O)(=O)c2ccccc2Cl)CC1 [Compound 4k, 1-((2-chlorophenyl)sulfonyl)-N-(4-(2-(trifluoromethyl)pyrimidin-5-yl)phenyl)piperidine-4-carboxamide]
IC50 [1]: 134 nM
solubility [2]: 31 to 63 µM (≈ 16.3 to 33.1 µg/mL)
IC50 [3]: 94.6 nM
IC50 [4]: 1130 nM
IC50 [5]: 327 nM

O=C(Nc1ccc(-c2cnc(Cl)nc2Cl)cc1)C1CCN(S(=O)(=O)c2ccccc2Cl)CC1 [Compound 4l, 1-((2-chlorophenyl)sulfonyl)-N-(4-(2,4-dichloropyrimidin-5-yl)phenyl)piperidine-4-carboxamide]
IC50 [1]: 15.4 nM
solubility [2]: 31 to 63 µM (≈ 16.3 to 33.1 µg/mL)
IC50 [3]: 78.8 nM
IC50 [4]: 40.4 nM
IC50 [5]: 2000 nM

O=C(Nc1ccc(-c2nnn[nH]2)cc1)C1CCN(S(=O)(=O)c2ccccc2Cl)CC1 [Compound 4n, N-(4-(1H-tetrazol-5-yl)phenyl)-1-((2-chlorophenyl)sulfonyl)piperidine-4-carboxamide]
IC50 [1]: 83.4 nM
solubility [2]: 31 to 63 µM (≈ 13.9 to 28.2 µg/mL)
IC50 [3]: 232 nM
IC50 [4]: 202 nM
IC50 [5]: > 10000 nM

O=C(Nc1ccc(-c2nnnn2C2CC2)cc1)C1CCN(S(=O)(=O)c2ccccc2Cl)CC1 [Compound 4o, 1-((2-chlorophenyl)sulfonyl)-N-(4-(1-cyclopropyl-1H-tetrazol-5-yl)phenyl)piperidine-4-carboxamide]
IC50 [1]: 29.6 nM
solubility [2]: 31 to 63 µM (≈ 15.1 to 30.7 µg/mL)
IC50 [3]: 22 nM
IC50 [4]: 12.5 nM
IC50 [5]: > 10000 nM

O=C(Nc1ccc(-c2nnnn2Cc2ccccc2)cc1)C1CCN(S(=O)(=O)c2ccccc2Cl)CC1 [Compound 4p, N-(4-(1-benzyl-1H-tetrazol-5-yl)phenyl)-1-((2-chlorophenyl)sulfonyl)piperidine-4-carboxamide]
IC50 [1]: 25.5 nM
solubility [2]: 31 to 63 µM (≈ 16.6 to 33.8 µg/mL)
IC50 [3]: 9.8 nM
IC50 [4]: 106 nM
IC50 [5]: > 10000 nM

COc1cnc(-n2nnnc2-c2ccc(NC(=O)C3CCN(S(=O)(=O)c4ccccc4Cl)CC3)cc2)c(OC)n1 [Compound 4q, 1-((2-chlorophenyl)sulfonyl)-N-(4-(1-(3,5-dimethoxypyrazin-2-yl)-1H-tetrazol-5-yl)phenyl)piperidine-4-carboxamide]
IC50 [1]: 305 nM
solubility [2]: 31 to 63 µM (≈ 18.1 to 36.9 µg/mL)
IC50 [3]: 213 nM
IC50 [4]: 264 nM
IC50 [5]: > 10000 nM

NC(=O)c1cccc(-c2cccc(OC(=O)NC3CCCCC3)c2)c1 [URB597, reference compound]
solubility [2]: > 63 µM

CN1CC[C@]23c4c5ccc(O)c4O[C@H]2[C@@H](O)C=C[C@H]3[C@H]1C5 [morphine, reference compound]
wheel revolutions in the 15 min after drug injection [6]: significantly lower
